We go through 31 compounds from ChEMBL document CHEMBL4270488, “Antibacterial Compounds from Marine Bacteria, 2010-2015” (J Nat Prod, 2017).

As usually defined, the MIC is the lowest concentration that inhibits growth of the organism.

Assay [1] deals with Staphylococcus aureus. The assay is described as follows: Antibacterial activity against methicillin-resistant Staphylococcus aureus. The assay is classed as functional.
In assay [2] the test system is Bacillus subtilis. The assay is described as follows: Antibacterial activity against Bacillus subtilis by broth dilution assay. The assay is classed as functional. Background: Dilution methods test growth across graded concentrations, often in twofold steps.
Assay [3] deals with Escherichia coli. The assay is described as follows: Antibacterial activity against Escherichia coli by broth dilution assay. It is filed as functional.
In assay [4] the test system is Bacillus subtilis. Briefly: Antibacterial activity against Bacillus subtilis by serial dilution assay. It is filed as functional.
Another assay deals with Micrococcus luteus. Briefly: Antibacterial activity against Micrococcus luteus by serial dilution assay. The assay is classed as functional.
Assay [5] deals with Escherichia coli. Briefly: Antibacterial activity against Escherichia coli by serial dilution assay. The assay is classed as functional.
The test system of another assay is Proteus vulgaris. The assay is described as follows: Antibacterial activity against Proteus vulgaris by serial dilution assay. It is filed as functional.
Assay [6] concerns Staphylococcus aureus. The assay is described as follows: Antibacterial activity against Staphylococcus aureus ATCC 29213. The assay is classed as functional.
Assay [7] deals with Staphylococcus aureus. Briefly: Antibacterial activity against Staphylococcus aureus by broth dilution assay. The assay is classed as functional.
Another assay relates to Pseudomonas aeruginosa. The assay is described as follows: Antibacterial activity against Pseudomonas aeruginosa by broth dilution assay. It is filed as functional.
The test system of another assay is Salmonella typhi. The assay is described as follows: Antibacterial activity against Salmonella typhi by broth dilution assay. The assay is classed as functional, Salmonella enterica subsp. enterica serovar Typhi. The settings on record: Salmonella enterica.

The structures appear in SMILES notation. Converted amounts (≈) assume the structure as drawn. Where a SMILES comes first, the peptide text is derived from it. [ ]: non-standard residue; d: D form. The star is where a group is joined. Tridecanoyl(3R-OH,11-Me) = CCC(C)CCCCCCC[C@@H](O)CC(=O)*; X1 = CCC(C)CC(C)CCCC[C@@H](O)CC(=O)* Bounds are passed on as bounds.

In turn, `CO[C@@H]1[C@@H](OC(N)=O)[C@@H](O)[C@H](Oc2ccc3c(O)c(NC(=O)c4ccc(O)c(CC=C(C)C)c4)c(=O)oc3c2C)OC1(C)C` [NOVOBIOCIN] displayed a minimal inhibitory concentration (MIC) with Staphylococcus aureus [1] of 0.25 µg/mL (≈ 0.408 µM).
As for `COC(=O)CCC(=O)O[C@@H]1/C=C/C=C\C[C@H](O)C[C@@H](O)/C=C/C=C/CCC[C@@H](C)OC(=O)/C=C\C=C\C1`, the MIC with Bacillus subtilis [2] and against Escherichia coli [3] was no less than 16 µg/mL throughout.
As to `CC[C@H]1[C@@H]2C=C[C@@H]3[C@H]4/C=C/CC(=O)NCCC[C@H]5C(O)=C(C(=O)/C=C/[C@@H]4C[C@@H]3[C@H]2C[C@H]1C)C(=O)N5C`, in the assay on Staphylococcus aureus [1], the minimum inhibitory concentration (MIC) was in the range of 1 to 4 µg/mL (≈ 2.03 to 8.12 µM).
Regarding `O=C1NC(=O)C(c2c[nH]c3ccccc23)=C1c1ccc(O)c([N+](=O)[O-])c1`, the MIC in the assay on Bacillus subtilis [4], against Micrococcus luteus, with Escherichia coli [5] and in the assay with Proteus vulgaris was 3 to 25 µg/mL (≈ 8.59 to 71.6 µM) throughout.
In the case of `O=C1NC(=O)C(c2ccc(O)cc2)=C1c1ccccc1`, the MIC against Bacillus subtilis [4], against Micrococcus luteus, in the assay with Escherichia coli [5] and against Proteus vulgaris was 25 to 100 µg/mL (≈ 94.2 to 377 µM) throughout.
In the case of `C[C@@H](O)CCC/C=C/C=C/[C@H](O)C[C@@H](O)C/C=C\C=C\[C@@H](O)C/C=C/C=C\C(=O)O`, the MIC against Bacillus subtilis [2] and against Escherichia coli [3] was 8 µg/mL (≈ 19 µM) in each case.
Turning to `C[C@@H](O)CCC/C=C/C=C/[C@H](O)C[C@@H](O)C/C=C\C=C\C(=O)O`, the MIC with Bacillus subtilis [2] and with Escherichia coli [3] was no less than 16 µg/mL throughout.
Turning to `COC(=O)N[C@H]1[C@@H](C)O[C@@H](O[C@H]2C/C=C(\C)[C@@H]3C=C[C@@H]4[C@@H](O[C@H]5C[C@@H](O[C@H]6C[C@@H](O)[C@@H](O)[C@H](C)O6)[C@@H](O)[C@H](C)O5)[C@@H](C)C[C@H](C)[C@H]4[C@]3(C)C(=O)C3=C(O)[C@@]4(C[C@@H](C)C(C)=C[C@H]4/C=C/2C)OC3=O)C[C@]1(C)[N+](=O)[O-]`, the MIC in the assay with Staphylococcus aureus [6] is 6.2 to 50 µg/mL (≈ 6.04 to 48.7 µM).
In the assay on Staphylococcus aureus [1], `CC(=O)[C@H]1[C@@H]2C=C[C@@H]3[C@H]4C/C=C\C(=O)NCCC[C@H]5C(O)=C(C(=O)/C=C/[C@@H]4C[C@@H]3[C@H]2C[C@H]1C)C(=O)N5C` yielded an MIC of 32 to 64 µg/mL (≈ 63.2 to 126 µM).
`CO[C@@H]1[C@@H](OC(N)=O)[C@@H](O)[C@H](Oc2ccc3c(O)c(NC(=O)c4cc(O)c(O)c(CC=C(C)C)c4)c(=O)oc3c2C)OC1(C)C` gave a minimal inhibitory concentration (MIC) with Staphylococcus aureus [1] of 8 to 16 µg/mL (≈ 12.7 to 25.5 µM).
Regarding `CO[C@@H]1/C=C/[C@H](O)C[C@@H](O)C/C=C\C=C\[C@@H](O)C/C=C/C=C\C(=O)O[C@H](C)CCC[C@@H]1O`, the MIC in the assay with Bacillus subtilis [2] and against Escherichia coli [3] was no less than 16 µg/mL in each case.
In the assay with Staphylococcus aureus [1], `CC(=O)O[C@H]1[C@@H](O)[C@H](Oc2ccc3c(O)c(NC(=O)c4cc(O)c(O)c(CC=C(C)C)c4)c(=O)oc3c2C)OC(C)(C)[C@@H]1O` returned a minimal inhibitory concentration (MIC) greater than 64 µg/mL.
`CCC(C)CCCCCCC[C@@H](O)CC(=O)N[C@@H](CCC(=O)O)C(=O)N[C@@H](CC(C)C)C(=O)N[C@@H](CC(C)C)C(=O)N[C@@H](C(=O)N[C@@H](CC(=O)O)C(=O)N[C@@H](CC(C)C)C(=O)N[C@@H](CC(C)C)C(=O)O)C(C)C` (stereo partly drawn) ({Tridecanoyl(3R-OH,11-Me)}-ELL[dV]DLL-OH): the MIC against Staphylococcus aureus [7], with Bacillus subtilis [2], against Pseudomonas aeruginosa and in the assay with Salmonella typhi was 16 µg/mL (≈ 15.4 µM) each time.
For `O=C1N/C(=N\O)C(c2ccccc2)=C1c1ccc(O)c([N+](=O)[O-])c1`, the MIC in the assay on Bacillus subtilis [4], against Micrococcus luteus, with Escherichia coli [5] and against Proteus vulgaris was 3 to 25 µg/mL (≈ 9.22 to 76.9 µM) throughout.
As for `CCC(C)CC(C)CCCC[C@@H](O)CC(=O)N[C@@H](CCC(=O)O)C(=O)N[C@@H](CC(C)C)C(=O)N[C@@H](CC(C)C)C(=O)N[C@@H](CC(C)C)C(=O)O` (some centres not stated) (X1-ELLL-OH), the MIC in the assay on Staphylococcus aureus [7] is 0.03 µg/mL (≈ 0.0421 µM); in the assay on Bacillus subtilis [2], 0.03 µg/mL (≈ 0.0421 µM); against Pseudomonas aeruginosa it was 0.01 µg/mL (≈ 0.014 µM); with Salmonella typhi, 0.01 µg/mL (≈ 0.014 µM).
In the case of `C[C@@H]1CCC/C=C/C=C/[C@H](O)C[C@@H](O)[C@H](O)/C=C\C=C\[C@@H](O)C/C=C/C=C\C(=O)O1`, the MIC against Staphylococcus aureus [7] is 0.1 µg/mL (≈ 0.239 µM); against Bacillus subtilis [2], 100 µg/mL (≈ 239 µM); against Escherichia coli [3], 0.3 µg/mL (≈ 0.717 µM).
Turning to `CCC(C)CCCCCCC[C@@H](O)CC(=O)N[C@@H](CCC(=O)OC)C(=O)N[C@@H](CC(C)C)C(=O)N[C@@H](CC(C)C)C(=O)N[C@@H](CC(C)C)C(=O)O` (stereo partly drawn) ({Tridecanoyl(3R-OH,11-Me)}-E(OMe)LLL-OH), the minimal inhibitory concentration (MIC) with Staphylococcus aureus [7] turned out to be 0.03 µg/mL (≈ 0.0413 µM); with Bacillus subtilis [2] it was 0.01 µg/mL (≈ 0.0138 µM); in the assay with Pseudomonas aeruginosa, 0.03 µg/mL (≈ 0.0413 µM); against Salmonella typhi it was 0.01 µg/mL (≈ 0.0138 µM).
The compound `CC(C)=CCc1cc(C(=O)Nc2c(O)c3ccc(O[C@@H]4OC(C)(C)[C@H](O)[C@@H](O)[C@H]4O)c(C)c3oc2=O)cc(O)c1O` had an MIC in the assay on Staphylococcus aureus [1] greater than 64 µg/mL.
The same measure, in the same setting: in the case of `CC(C)=CCc1cc(C(=O)Nc2c(O)c3ccc(O[C@@H]4OC(C)(C)[C@H](O)[C@@H](O)[C@H]4O)c(C)c3oc2=O)ccc1O` it was greater than 64 µg/mL.
`CCC(C)CCCCCCC[C@@H](O)CC(=O)N[C@@H](CCC(=O)O)C(=O)N[C@@H](CC(C)C)C(=O)O` (some centres not stated): the MIC in the assay with Staphylococcus aureus [7] stood at 0.01 µg/mL (≈ 0.0205 µM); in the assay with Bacillus subtilis [2] it was 0.01 µg/mL (≈ 0.0205 µM); in the assay on Pseudomonas aeruginosa, 0.03 µg/mL (≈ 0.0616 µM); against Salmonella typhi it was 0.03 µg/mL (≈ 0.0616 µM).
With `O=C1N/C(=N\O)C(c2ccc(O)c([N+](=O)[O-])c2)=C1c1ccc(O)c([N+](=O)[O-])c1`, the MIC against Bacillus subtilis [4], in the assay on Micrococcus luteus, with Escherichia coli [5] and against Proteus vulgaris was 3 to 25 µg/mL (≈ 7.77 to 64.7 µM) in each case.
For the compound `O=C1NC(=O)C(c2ccc(O)c([N+](=O)[O-])c2)=C1c1ccccc1`, the MIC in the assay with Bacillus subtilis [4], with Micrococcus luteus, against Escherichia coli [5] and in the assay on Proteus vulgaris was 25 to 100 µg/mL (≈ 80.6 to 322 µM) in each case.
The compound `CC(C)=CCc1cc(C(=O)Nc2c(O)c3ccc(O[C@@H]4OC(C)(C)[C@H](O)[C@@H](OC(N)=O)[C@H]4O)c(C)c3oc2=O)ccc1O` yielded an MIC in the assay with Staphylococcus aureus [1] of 8 to 16 µg/mL (≈ 13.4 to 26.7 µM).
As to `O=C1NC(=O)C(c2ccc(O)c([N+](=O)[O-])c2)=C1c1ccc(O)cc1`, the minimal inhibitory concentration (MIC) against Bacillus subtilis [4], against Micrococcus luteus, against Escherichia coli [5] and with Proteus vulgaris was 25 to 100 µg/mL (≈ 76.6 to 307 µM) each time.
Consider `O=C1NC(=O)C(c2ccc(O)c([N+](=O)[O-])c2)=C1c1ccc(O)c([N+](=O)[O-])c1`, for which the minimum inhibitory concentration (MIC) in the assay on Bacillus subtilis [4], in the assay on Micrococcus luteus, with Escherichia coli [5] and in the assay on Proteus vulgaris was 25 to 100 µg/mL (≈ 67.3 to 269 µM) each time.
Turning to `C[C@@H]1CCC/C=C/C=C/[C@H](O)C[C@@H](O)[C@H](O)/C=C\C=C\[C@H](O)C/C=C/C=C\C(=O)O1`, the MIC in the assay with Staphylococcus aureus [7], in the assay with Bacillus subtilis [2] and against Escherichia coli [3] was 0.1 µg/mL (≈ 0.239 µM) each time.
Take `CC[C@H]1[C@@H]2C=C[C@@H]3[C@H]4/C=C/CC(=O)NCCC[C@@H]5NC(=O)C(=C5O)C(=O)/C=C/[C@@H]4C[C@@H]3[C@H]2C[C@H]1C`: the minimal inhibitory concentration (MIC) in the assay with Staphylococcus aureus [1] fell in the range of 1 to 4 µg/mL (≈ 2.09 to 8.36 µM).
The same measure, in the same setting: next, `CC[C@H]1[C@@H]2C=C[C@@H]3[C@H]4C/C=C\C(=O)NCCC[C@@H]5NC(=O)C(=C5O)C(=O)/C=C/[C@@H]4C[C@@H]3[C@H]2C[C@H]1C`: 1 to 4 µg/mL (≈ 2.09 to 8.36 µM).
As for `COC(=O)C[C@H](O)C[C@@H](O)C[C@H](O)/C=C/C=C/CCC[C@@H](C)O`, the MIC in the assay on Bacillus subtilis [2] and with Escherichia coli [3] was no less than 16 µg/mL each time.
Take `C[C@@H]1CCC[C@@H](O)/C=C/[C@@H]2O[C@@H]2C[C@@H](O)C/C=C\C=C\[C@@H](O)C/C=C/C=C\C(=O)O1`: the minimal inhibitory concentration (MIC) against Bacillus subtilis [2] and against Escherichia coli [3] was 16 µg/mL (≈ 38.2 µM) each time.
Take `O=C1N/C(=N\O)C(c2ccc(O)c([N+](=O)[O-])c2)=C1c1ccccc1`: the MIC against Bacillus subtilis [4], with Micrococcus luteus, against Escherichia coli [5] and in the assay on Proteus vulgaris was 3 to 25 µg/mL (≈ 9.22 to 76.9 µM) throughout.
